The text below walks through data of patent publication EP0727211A1, “Use of src SH2 specific compounds to treat a bone resorption disease” (SMITHKLINE BEECHAM CORPORATION, priority 1995, dated 1996).

The target in assay [1] is human src SH2 domain (Homo sapiens, UniProt P12931). Briefly: SH2 domain / pY peptide binding assay (ELISA-based, 96 well plate), src SH2. How it is done:
(§1) The inhibitory activity of compounds at the different human SH2 domains was determined in vitro using SH2 domains expressed as fusion proteins in E. coli. The SH2 domains used herein were the human forms of the src SH2 domain, Grb2 SH2 domain, lck SH2 domain, fyn SH2 domain, SH-PTP2 SH2 domain, p85 SH2 domain and hcp SH2 domain. The fusion proteins containing the src, lck and hcp SH2 domains were expressed as the general sequence: DET1-DET2-spacer-ek-SH2, where DETI, DET2, spacer, ek and SH2 are as described below. […] Monoclonal antibodies to various epitopes of HIV-1 gp120 (or gp160) are known in the art, see, for example U.S. Patent 5,166,050. One preferred example is monoclonal antibody 178.1 (see, […] et al., J. Immunol., 143:1832-1836 (1989)), which was prepared by immunization of mice with a yeast-expressed HIV-1 gp160 molecule from strain BH10 (Ratner et al., Nature, 313:277-284 (1985)). This tag was used for detection of expression (by Western blot), for purification of the protein (by affinity chromatography), and for configuring assays in which the fusion protein was captured or immobilized using the 178.1 antibody. DET2 is a hexahistidine sequence tag (SEQ ID NO: 2) which binds to nickel-containing resins and was used for purification purposes. Spacer (SEQ ID NO: 3) was utilized to design a BamH1 restriction site at the indicated position of the construct. The term -[…] to a recognition sequence (SEQ ID NO: 4) for the enterokinase protease which provides for the optional removal of the tags from the SH2 domain, thus producing an SH2 domain that contains no extraneous amino acids. SH2 domains which contain no extraneous amino acids are preferable to tagged protein for crystallography studies. SH2 refers to the SH2 domains of different proteins. Cloning, expression and purification of human src SH2 domain containing tags and an enterokinase proteolytic cleavage site (DET1-DET2-spacer-ek-src SH2). A DNA sequence encoding protein ek-src SH2 was PCR amplified from a cDNA clone containing the human src gene (c-src SH2 DNA sequence identical to that described in […]. and Hanafusa, H, 1983 Cell 32:881-890) using the following primers: [formula] The PCR product was digested with BamHI and XbaI, followed by isolation of the digested fragment on an agarose gel. […] In that vector, the BamHI site is located between the coding regions for DET2 and SH2, and the XbaI site is located after the 3' end of the SH2 coding region. The ligation reaction was used to transform E. coli M[…]^+. […] Cells were lysed at neutral pH by sonication in the […] of lysozyme. […] After washing the column with equilibration buffer (Tris buffer pH 8 containing 0.5 M NaCl) and the same buffer containing 15 mM imidazole, the protein was eluted in highly purified form with 25 mM imidazole in equilibration buffer. […] The binding assays for the SH2 domains and pY peptides were performed in an ELISA-based 96 well plate assay. In Millipore 96 well filter plates, hydrophilic Durapore® (pore size 0.65um Cat. No. MADVN6550), was added 2 ul (50% suspension) of Protein-G Sepharose (available from Pharmacia of N.J. Cat. […] The volume was brought to 100 ul with TBS-T (tris buffered saline plus 0.05% tween-20), incubated and shaken at room trmperature for 1 hr. then washed 1x with TBS-T (4°C). 90 ul of TBS-T were then added to each well. […] The assay plates were incubated until equilibrium binding was attained (3 hr at 4°C with shaking). […] The A490 of each ELISA plate was then determined. […]

The subject of assay [2] is osteoclast mediated bone resorption. Briefly: fetal rat long bone (FRLB) assay, 45calcium release. Type of assay: cell-based, Sprague Dawley rats. As to conditions: inhibition of 45calcium release from fetal rat radii and ulnae, 48 hours culture with compound, n=4. How it is done:
4-[4-(4-Methylbenzoyl)benzoyl]phenylacetaldehyde (Compound 4) was tested for its potency to inhibit osteoclast mediated bone resorption in the fetal rat long bone (FRLB) assay as described in Raisz LG (1965) J Clin Invest 44: 103-116, Stern PH et al., (1979) Skeletal Research: An experimental Approach. New York:Academic Press, 21-59 and Votta BJ et al., (1994) Bone 15:533-538).
To perform the experiment timed-pregnant Sprague Dawley rats (Taconic Farms, Germantown, NY) were injected subcutaneously with 200 µCi of ^45CaCl2 on day 18 of gestation, housed overnight, then anesthetized with Innovar-Vet (Pittman-Moore, Mundelein, IL) and sacrificed by cervical dislocation. Fetuses were removed aseptically and radii and ulnae were dissected free of surrounding soft tissue and cartilaginous ends. The bones were cultured 18-24 hours in BGJb medium (Sigma) containing 1 mg/ml bovine serum albumin, then transferred to fresh medium and cultured for an additional 48 hours in the absence or presence of Compound 4. ^45Calcium released into the medium and total calcium in the bones were measured by liquid scintillation spectrometry. Data were expressed as the % ^45calcium released from treated bones as compared to corresponding control bones. Statistical differences were assessed by employing a one-way analysis of variance for non-paired samples. Data are presented as mean ± s.e.m., n=4. […]

Assay [3] concerns human src SH2 domain. The assay can be described thus: SH2 domain / pY peptide binding assay (ELISA-based, 96 well plate), src SH2. As to conditions: selectivity for src SH2 versus the other SH2 domains of Tables I and II. How it is done: as §1

Where two headings read alike, the source gives them in different places. Some results are limits rather than exact numbers.

human src SH2 domain (Homo sapiens, UniProt P12931), sequence (P12931 151-248): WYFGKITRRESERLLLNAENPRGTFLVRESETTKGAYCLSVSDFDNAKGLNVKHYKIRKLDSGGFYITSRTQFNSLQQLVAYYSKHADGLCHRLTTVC

Turning to `N[C@@H](Cc1cc(Br)c(Oc2ccc(O)c(Cc3ccc(O)nn3)c2)c(Br)c1)C(=O)O` [Compound 2, L-3,5-Dibromo-3'-(6-oxo-3(1H)-pyridazinylmethyl)-thyronine], the concentration for half-maximal inhibition (IC50) at human src SH2 domain [1] (read-out: Src (IC50); cloned human SH2 domain fusion protein; 0.1 uM biotinylated pY peptide; Table I) was above 300 µM. Also, the inhibitory constant (Ki) on human src SH2 domain [1] (read-out: Src (Ki); Ki calculated from IC50 by the expanded equation; Table II) is above 1000 µM.

Consider `Cc1ccc(C(=O)c2ccc(C(=O)c3ccc(CC=O)cc3)cc2)cc1` [Compound 4, 4-[4-(4-Methylbenzoyl)benzoyl]phenylacetaldehyde], for which, in assay [2], the half-maximal inhibitory concentration (IC50) was 19 µM.

On to `CCCCCCNC(=O)[C@H]1CC[C@H](CNC(=O)c2ccc([N+](=O)[O-])cc2)CC1` [Compound 7, 4-nitro-benzamido-trans-4-methyl-cyclohexyl-N-hexyl carboxamide], for which the Ki on human src SH2 domain [1] (Ki calculated from IC50 by the expanded equation; Table II; read-out: Src (Ki)) was 20 µM. Also, the IC50 at human src SH2 domain [1] (cloned human SH2 domain fusion protein; 0.1 uM biotinylated pY peptide; Table I; read-out: Src (IC50)) amounted to 7.4 µM. The “binding affinity/inhibitory concentration at the src SH2 domain than at other SH2 domains” value in the assay with human src SH2 domain [3] is “greater than fifty-fold higher”.
